pIC50: −log10 of the molar value. Counter-ions that a name gives are not always drawn.
Target: Bile salt export pump (Homo sapiens, UniProt O95342)
Test: Inhibition of human BSEP expressed in fall armyworm sf9 cell plasma membrane vesicles assessed as reduction in vesicle-associated [3H]-taurocholate transport preincubated for 10 mins prior to ATP addition measured after 15 mins in presence of [3H]-taurocholate by topcount based membrane vesicle transport assay
Type: ADME

SMILES | pIC50
Nc1cc(-c2ccncc2)c[nH]c1=O [INAMRINONE] | < 3.87
CC[C@H]1CN2CCc3cc(OC)c(OC)cc3[C@@H]2C[C@@H]1C[C@H]1NCCc2cc(OC)c(OC)cc21 [EMETINE] | < 3.87
CS(=O)(=O)c1ccc(C2=C(c3ccccc3)C(=O)OC2)cc1 [ROFECOXIB] | < 3.87
Clc1ccc2nsnc2c1NC1=NCCN1 [TIZANIDINE] | < 3.87
Cc1c(C)c2c(c(C)c1O)CCC(C)(COc1ccc(CC3SC(=O)NC3=O)cc1)O2 (stereo not given) [TROGLITAZONE] | 5.23
C#CCN(C)[C@H](C)Cc1ccccc1 [SELEGILINE HYDROCHLORIDE] | < 3.87
CC(=O)O[C@H]1C[C@@]2(C)[C@@H](C[C@@H](O)[C@H]3[C@@]4(C)CC[C@@H](O)[C@@H](C)[C@@H]4CC[C@@]32C)/C1=C(\CCC=C(C)C)C(=O)O [FUSIDIC ACID] | 5.00
Nc1ccc(S(=O)(=O)Nc2ncccn2)cc1 [SULFADIAZINE] | < 3.87
CC(C)(C)NC(=O)[C@H]1CC[C@H]2[C@@H]3CC[C@H]4NC(=O)C=C[C@]4(C)[C@H]3CC[C@]12C [FINASTERIDE] | 4.55
CO[C@H]1/C=C/O[C@@]2(C)Oc3c(C)c(O)c4c(O)c(c(/C=N/N5CCN(C)CC5)c(O)c4c3C2=O)NC(=O)/C(C)=C\C=C\[C@H](C)[C@H](O)[C@@H](C)[C@@H](O)[C@@H](C)[C@H](OC(C)=O)[C@@H]1C [RIFAMPIN] | 4.60
CC(C)OC(=O)C(C)(C)Oc1ccc(C(=O)c2ccc(Cl)cc2)cc1 [FENOFIBRATE] | 4.82
CC1Cc2ccccc2N1NC(=O)c1ccc(Cl)c(S(N)(=O)=O)c1 (stereo not given) [INDAPAMIDE] | < 3.87
CC1=C(CC(=O)O)c2cc(F)ccc2/C1=C\c1ccc([S+](C)[O-])cc1 (stereo not given) | < 3.87
CN(C)CCC=C1c2ccccc2CCc2ccccc21 [AMITRIPTYLINE] | < 3.87
CCN1CCC[C@H]1CNC(=O)c1c(OC)ccc(Br)c1OC [REMOXIPRIDE] | < 3.87
CCc1ccc(CCOc2ccc(CC3SC(=O)NC3=O)cc2)nc1 (stereo not given) [PIOGLITAZONE] | 6.40
CN(C)CCC(c1ccc(Cl)cc1)c1ccccn1 (stereo not given) [CHLORPHENIRAMINE] | < 3.87
CC(C)(Oc1ccc(C2CC2(Cl)Cl)cc1)C(=O)O (stereo not given) [CIPROFIBRATE] | < 3.87
CCN(CC)CCOc1ccc2c(c1)C(=O)c1cc(OCCN(CC)CC)ccc1-2 [TILORONE] | < 3.87
COc1ccc2c3c1O[C@H]1C[C@@H](O)C=C[C@@]31CCN(C)C2 [GALANTAMINE] | < 3.87
C[C@@H]1CCC[C@H](C)N1NC(=O)c1ccc(Cl)c(S(N)(=O)=O)c1 [CLOPAMIDE] | < 3.87
Cc1ccc(C)c(OCCCC(C)(C)C(=O)O)c1 [GEMFIBROZIL] | < 3.87

SMILES | pIC50
NC(N)=Nc1nc(CSCCC(N)=NS(N)(=O)=O)cs1 [FAMOTIDINE] | < 3.87
CC(=O)Nc1ccc(O)cc1 [ACETAMINOPHEN] | < 3.87
Cc1cc(=O)n(-c2ccccc2)n1C [ANTIPYRINE] | < 3.87
O=C(NCCN1CCOCC1)c1ccc(Cl)cc1 [MOCLOBEMIDE] | < 3.87
COc1ccc2[nH]c([S+]([O-])Cc3ncc(C)c(OC)c3C)nc2c1 (stereo not given) [OMEPRAZOLE] | 3.98 to 4.12
CCN(CC)CCNC(=O)c1cc(Cl)c(N)cc1OC [METOCLOPRAMIDE] | < 3.87
O=c1[nH]cc(F)c(=O)[nH]1 [FLUOROURACIL] | < 3.87
O=C(NC1CCN(CCc2c[nH]c3ccccc23)CC1)c1ccccc1 [INDORAMIN] | < 3.87
CNS(=O)(=O)Cc1ccc2[nH]cc(CCN(C)C)c2c1 | < 3.87
O=C(O)c1ccccc1-c1c2ccc(=O)cc-2oc2cc(O)ccc12 | < 3.87
OCCN1CCN(CCCN2c3ccccc3Sc3ccc(Cl)cc32)CC1 [PERPHENAZINE] | < 3.87
O=C(O)CCNC(=O)c1ccccc1 [BETAMIPRON] | < 3.87
CN(C)C(=O)Oc1cccc([N+](C)(C)C)c1 [NEOSTIGMINE] | < 3.87
CCC(C)n1ncn(-c2ccc(N3CCN(c4ccc(OCC5COC(Cn6cncn6)(c6ccc(Cl)cc6Cl)O5)cc4)CC3)cc2)c1=O (stereo not given) [ITRACONAZOLE] | 4.74
COc1ccc2cc1Oc1cc3c(cc1OC)CC[N+](C)(C)[C@H]3Cc1ccc(cc1)Oc1c(OC)c(OC)cc3c1[C@@H](C2)[N+](C)(C)CC3 [METOCURINE] | < 3.87
CCOC(=O)C1=C(C)NC(C)=C(C(=O)OC)C1c1cccc([N+](=O)[O-])c1 (stereo not given) [NITRENDIPINE] | 4.35 to 4.60
COc1ccc(C(CN(C)C)C2(O)CCCCC2)cc1 (stereo not given) [VENLAFAXINE] | < 3.87
CCC(=O)O[C@H]1[C@H](O[C@@H]2[C@@H](C)[C@H](O[C@H]3C[C@@](C)(OC)[C@@H](O)[C@H](C)O3)[C@@H](C)C(=O)O[C@H](CC)[C@@](C)(O)[C@H](O)[C@@H](C)C(=O)[C@H](C)C[C@@]2(C)O)O[C@H](C)C[C@@H]1N(C)C [ERYTHROMYCIN ESTOLATE] | 4.89
CCCCc1ncc(/C=C(\Cc2cccs2)C(=O)O)n1Cc1ccc(C(=O)O)cc1 [EPROSARTAN] | < 3.87
CC(C)CN(C[C@@H](O)[C@H](Cc1ccccc1)NC(=O)O[C@H]1CCOC1)S(=O)(=O)c1ccc(N)cc1 | 4.35 to 4.60
COc1ccc(Cl)cc1[C@]1(F)C(=O)Nc2cc(C(F)(F)F)ccc21 [FLINDOKALNER] | < 3.87
CNCCCN1c2ccccc2CCc2ccccc21 [DESIPRAMINE] | < 3.87

SMILES | pIC50
CCOc1ccc(NC(C)=O)cc1 [PHENACETIN] | < 3.87
Cc1ccc(C(=O)c2cc(O)c(O)c([N+](=O)[O-])c2)cc1 [TOLCAPONE] | 4.46
COc1ccc(Cc2nccc3cc(OC)c(OC)cc23)cc1OC [PAPAVERINE] | < 3.87
CC(C)NCC(O)c1ccc(NS(C)(=O)=O)cc1 (stereo not given) [SOTALOL] | < 3.87
COCC(=O)O[C@]1(CCN(C)CCCc2nc3ccccc3[nH]2)CCc2cc(F)ccc2[C@@H]1C(C)C [MIBEFRADIL] | 4.35 to 4.60
CC1=NS(=O)(=O)c2cc(Cl)ccc2N1 [DIAZOXIDE] | < 3.87
CCOC(=O)C(C)(C)Oc1ccc(Cl)cc1 [CLOFIBRATE] | 4.12 to 4.22
CN1CCN(C2=Nc3cc(Cl)ccc3Nc3ccccc32)CC1 [CLOZAPINE] | < 3.87
C(=C\c1ccccc1)/CN1CCN(C(c2ccccc2)c2ccccc2)CC1 [CINNARIZINE] | 4.80
CS(=O)(=O)CCNCc1ccc(-c2ccc3ncnc(Nc4ccc(OCc5cccc(F)c5)c(Cl)c4)c3c2)o1 [LAPATINIB] | 5.19
O=c1n(CCCN2CCN(c3cccc(Cl)c3)CC2)nc2ccccn12 [TRAZODONE] | < 3.87
O=C(O)CCCc1ccc(N(CCCl)CCCl)cc1 [CHLORAMBUCIL] | < 3.87
NC[C@H]1O[C@H](O[C@H]2[C@H](O)[C@@H](O[C@H]3O[C@H](CO)[C@@H](O)[C@H](N)[C@H]3O)[C@H](N)C[C@@H]2N)[C@H](O)[C@@H](O)[C@@H]1O [KANAMYCIN] | < 3.87
CCOC(=O)Nc1ccc(NCc2ccc(F)cc2)nc1N [FLUPIRTINE] | 4.45
O=P(O)(O)C(O)(Cn1ccnc1)P(=O)(O)O [ZOLEDRONIC ACID] | < 3.87
CCN(CC)CCNC(=O)c1ccc(NC(C)=O)cc1 [ACECAINIDE] | < 3.87
CC(=O)Oc1ccccc1C(=O)O [ASPIRIN] | < 3.87
Nc1nc(O)c2ncn(COC(CO)CO)c2n1 [GANCICLOVIR] | < 3.87
C=CCc1ccccc1OCC(O)CNC(C)C (stereo not given) [ALPRENOLOL] | < 3.87
C[C@H]1C[C@@H]2[C@H]([C@@H](O)C[C@@]3(C)[C@H]2CC[C@]3(O)C(=O)CO)[C@@]2(C)C=CC(=O)C=C12 [METHYLPREDNISOLONE] | < 3.87
CCc1oc2ccccc2c1C(=O)c1cc(Br)c(O)c(Br)c1 [BENZBROMARONE] | 4.76
CCOC(=O)c1ncn2c1CN(C)C(=O)c1cc(F)ccc1-2 [FLUMAZENIL] | < 3.87

SMILES | pIC50
CC[C@@]1(O)C(=O)OCc2c1cc1n(c2=O)Cc2cc3ccccc3nc2-1 [CAMPTOTHECIN] | < 3.87
CC(C)Cc1ccc(C(C)C(=O)O)cc1 (stereo not given) [IBUPROFEN] | < 3.87
COc1ccccc1N1CCN(CCCNc2cc(=O)n(C)c(=O)n2C)CC1 | < 3.87
N[C@@H](CC(=O)N1CCn2c(nnc2C(F)(F)F)C1)Cc1cc(F)c(F)cc1F [SITAGLIPTIN] | < 3.87
CNC1=Nc2ccc(Cl)cc2C(c2ccccc2)=[N+]([O-])C1 [CHLORDIAZEPOXIDE] | 4.35 to 4.60
CO[C@H]1/C=C/O[C@@]2(C)Oc3c(C)c(O)c4c(c3C2=O)C2=NC3(CCN(CC(C)C)CC3)NC2=C(NC(=O)/C(C)=C\C=C\[C@H](C)[C@H](O)[C@@H](C)[C@@H](O)[C@@H](C)[C@H](OC(C)=O)[C@@H]1C)C4=O [RIFABUTIN] | 4.57
Nc1c2c(nc3ccccc13)CCCC2 [TACRINE] | < 3.87
COc1cc2c3cc1Oc1cc(ccc1O)C[C@@H]1c4c(cc(OC)c(O)c4Oc4ccc(cc4)C[C@@H]3N(C)CC2)CC[N+]1(C)C [TUBOCURARINE] | < 3.87
CC(C)NNC(=O)c1ccncc1 [IPRONIAZID] | < 3.87
Cc1ccc(C(=O)Nc2ccc(S(=O)(=O)O)c3cc(S(=O)(=O)O)cc(S(=O)(=O)O)c23)cc1NC(=O)c1cccc(NC(=O)Nc2cccc(C(=O)Nc3cc(C(=O)Nc4ccc(S(=O)(=O)O)c5cc(S(=O)(=O)O)cc(S(=O)(=O)O)c45)ccc3C)c2)c1 [SURAMIN] | < 3.87
COc1ccccc1Oc1c(NS(=O)(=O)c2ccc(C(C)(C)C)cc2)nc(-c2ncccn2)nc1OCCO [BOSENTAN] | 4.66
N=C(N)c1ccc(OCCCCCOc2ccc(C(=N)N)cc2)cc1 [PENTAMIDINE] | < 3.87
O=C(c1ccc(F)cc1)C1CCN(CCn2c(=O)[nH]c3ccccc3c2=O)CC1 [KETANSERIN] | < 3.87
COC(=O)[C@H]1[C@H]2C[C@@H]3c4[nH]c5cc(OC)ccc5c4CCN3C[C@H]2C[C@@H](OC(=O)c2cc(OC)c(OC)c(OC)c2)[C@@H]1OC [RESERPINE] | 5.08
CN[C@@H]1C[C@H]2O[C@@](C)([C@@H]1OC)n1c3ccccc3c3c4c(c5c6ccccc6n2c5c31)C(=O)NC4 [STAUROSPORINE] | 4.73
Cc1ccc(NC(=O)c2ccc(CN3CCN(C)CC3)cc2)cc1Nc1nccc(-c2cccnc2)n1 [IMATINIB] | 4.60
Cc1ccnc2c1NC(=O)c1cccnc1N2C1CC1 [NEVIRAPINE] | < 3.87
S=C=Nc1cccc2ccccc12 [1-NAPHTHYLISOTHIOCYANATE] | 4.12 to 4.22
O=C1CN=C(c2ccccc2)c2cc([N+](=O)[O-])ccc2N1 [NITRAZEPAM] | < 3.87

Source: ChEMBL document CHEMBL4011581, “Interference with bile salt export pump function is a susceptibility factor for human liver injury in drug development” (Toxicol Sci, 2010)
